Measured values published in US9599627B2, “NMR methods for monitoring blood clot formation” (T2 Biosystems, Inc., priority 2011, dated 2017).

Key:
anti-Xa = experiment: PT clotting time of spiked samples (T2MR and Stago); type: cell-based, human; conditions: spiked at 10 ng/mL-1000 ng/mL
Procedure: Clotting times were measured by […] by first establishing a time zero T2 value (i.e., by taking the first point or some sort of average or linear fit to the first 5-10 data points) of the T2 time curve, and second identifying the time point (i.e., the clotting time or PT time) in the T2 time curve when the T2 value had changed by a predetermined amount (e.g. 5% or 10%) indicative of clotting in the sample. From the observed PT clotting time the INR was calculated using the methods described in Jan et al., Clin. Chem. 35:840 (1989). […] 18 normal samples and 24 abnormal samples were tested against a reference range established by 20 normal samples. Abnormal samples with prolonged PT times were obtained by spiking increasing levels of the anti-Xa inhibitor Rivaroxiban (10 ng/mL-1000 ng/mL). Correlation with TEG clotting time was obtained across >40 normal patient samples with non-optimized R2 correlation of >0.8. (see FIG. 14B). PT time correlations with Stago for plasma (see FIG. 14D) and with Hemochron for whole blood (see FIG. 14C) were also found.

[1] = tested on: P2Y12 pathway in platelets; experiment: T2MR platelet inhibition, ADP activation formulation in citrated whole blood; type: cell-based, human; conditions: ex vivo spiked MeSAMP, healthy donors
Description: We have developed a standard formulation for ADP activation of platelets in citrated whole blood which uses the addition of heparin to control thrombin activation, thereby minimizing variability in platelet activation via thrombin. Clotting in such a system is initiated with a combination of calcium (to overcome citrate), and reptilase/factor XIIIa (to replace thrombin). The complete one-pot activation mixture which activates platelets via ADP, and is therefore useful in probing the state of the P2Y12 ADP receptor, contains heparin, reptilase, factor XIIIa, calcium, and ADP.
In this experiment inhibition of the P2Y12 pathway in platelets by using the ex vivo spiked MeSAMP (2-thiomethyl AMP, an irreversible ADP P2Y12 receptor inhibitor) as a mimic for Plavix inhibition of platelet activity was tested.
A standard ADP activation formulation including heparin, reptilase, factor XIIIa, calcium, and ADP was used to activate platelet in citrated whole blood obtained from healthy donors. Samples were tested in the presence and absence of the platelet activation inhibitor MeSAMP. Again we observed that the clot signature was dependent on platelet activity.

platelet activity = experiment: T2MR platelet inhibition, heparin blood activated by AA+RF; type: cell-based; conditions: 600 μM aspirin ex vivo, AA+RF activation
Procedure: In this experiment platelet inhibition was monitored by the addition of 600 μM aspirin ex vivo to heparin blood prior to activation by AA+RF (samples were tested with and without aspirin). […] These studies confirmed that the clot signature was dependent on platelet activity.

O=C(NC[C@H]1CN(c2ccc(N3CCOCC3=O)cc2)C(=O)O1)c1ccc(Cl)s1 [Rivaroxiban]
PT times (anti-Xa): prolonged

CSc1nc(N)c2ncn([C@@H]3O[C@H](COP(=O)(O)O)[C@@H](O)[C@H]3O)c2n1 [MeSAMP, 2-thiomethyl AMP]
clot-associated T2 signal [1]: dramatically diminished or absent

CC(=O)Oc1ccccc1C(=O)O [aspirin]
clot-associated T2 signal (platelet activity): dramatically diminished or absent
